From patent US20260262643A1, “HERBICIDAL BENZOXAZINES” (FMC CORPORATION, priority 2022, published 2026)

Tests used:
barnyardgrass [1] = test: Test D flooded paddy test; type: in vivo, Echinochloa crus-galli; conditions: 250 g ai/ha, applied to paddy water, visual rating after 13 to 14 days, scale 0 to 100 (0 no effect, 100 complete control)
Method in brief: (§1)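 Rating scale 0–100 (0 no effect, 100 complete control), visual, versus controls. Readout at 13–14 days after in-water application to 2-leaf plants in pots flooded 3 cm deep.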

oat, wild [2] = test: Test C postemergence; type: in vivo, Avena fatua; conditions: 10 days, 0 to 100 scale (0 no effect, 100 complete control)
Method in brief: (§2)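 Pre: seeds in loam/sand, directed soil spray. Post: 1–2 leaf plants, 2–10 cm. Cmpd in non-phytotoxic solvent + surfactant. Greenhouse 10 d; visual rating vs untreated, 0 = none, 100 = complete control.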

oat, wild [3] = test: Test C preemergence; type: in vivo, Avena fatua
Method in brief: as §2

wheat [4] = test: Test C preemergence; type: in vivo, Triticum aestivum
Method in brief: as §2

barnyardgrass [5] = test: Test C preemergence; type: in vivo, Echinochloa crusgalli
Method in brief: as §2

kochia [6] = test: Test C preemergence; type: in vivo, Bassia scoparia
Method in brief: as §2

kochia [7] = test: Test C postemergence; type: in vivo, Bassia scoparia; conditions: 10 days, 0 to 100 scale (0 no effect, 100 complete control)
Method in brief: as §2

green foxtail [8] = test: Test C preemergence; type: in vivo, Setaria viridis
Method in brief: as §2

wheat [9] = test: Test C postemergence; type: in vivo, Triticum aestivum; conditions: 10 days, 0 to 100 scale (0 no effect, 100 complete control)
Method in brief: as §2

corn [10] = test: Test C postemergence; type: in vivo, Zea mays; conditions: 10 days, 0 to 100 scale (0 no effect, 100 complete control)
Method in brief: as §2

ryegrass, Italian [11] = test: Test C postemergence; type: in vivo, Lolium multiflorum; conditions: 10 days, 0 to 100 scale (0 no effect, 100 complete control)
Method in brief: as §2

ducksalad = test: Test D flooded paddy test; type: in vivo, Heteranthera limosa; conditions: 250 g ai/ha, applied to paddy water, visual rating after 13 to 14 days, scale 0 to 100 (0 no effect, 100 complete control)
Method in brief: as §1

sedge, umbrella = test: Test D flooded paddy test; type: in vivo, Cyperus difformis; conditions: 250 g ai/ha, applied to paddy water, visual rating after 13 to 14 days, scale 0 to 100 (0 no effect, 100 complete control)
Method in brief: as §1

ryegrass, Italian [12] = test: Test C preemergence; type: in vivo, Lolium multiflorum
Method in brief: as §2

barnyardgrass [13] = test: Test C postemergence; type: in vivo, Echinochloa crusgalli; conditions: 10 days, 0 to 100 scale (0 no effect, 100 complete control)
Method in brief: as §2

soybean [14] = test: Test C preemergence; type: in vivo, Glycine max
Method in brief: as §2

blackgrass [15] = test: Test C postemergence; type: in vivo, Alopecurus myosuroides; conditions: 10 days, 0 to 100 scale (0 no effect, 100 complete control)
Method in brief: as §2

ragweed [16] = test: Test C preemergence; type: in vivo, Ambrosia artemisiifolia
Method in brief: as §2

pigweed, palmer [17] = test: Test C postemergence; type: in vivo, Amaranthus palmeri; conditions: 10 days, 0 to 100 scale (0 no effect, 100 complete control)
Method in brief: as §2

green foxtail [18] = test: Test C postemergence; type: in vivo, Setaria viridis; conditions: 10 days, 0 to 100 scale (0 no effect, 100 complete control)
Method in brief: as §2

blackgrass [19] = test: Test C preemergence; type: in vivo, Alopecurus myosuroides
Method in brief: as §2

horseweed = test: Test C postemergence; type: in vivo, Erigeron canadensis; conditions: 10 days, 0 to 100 scale (0 no effect, 100 complete control)
Method in brief: as §2

pigweed, palmer [20] = test: Test C preemergence; type: in vivo, Amaranthus palmeri
Method in brief: as §2

rice = test: Test D flooded paddy test; type: in vivo, Oryza sativa; conditions: 250 g ai/ha, applied to paddy water, visual rating after 13 to 14 days, scale 0 to 100 (0 no effect, 100 complete control)
Method in brief: as §1

soybean [21] = test: Test C postemergence; type: in vivo, Glycine max; conditions: 10 days, 0 to 100 scale (0 no effect, 100 complete control)
Method in brief: as §2

corn [22] = test: Test C preemergence; type: in vivo, Zea mays
Method in brief: as §2

galium = test: Test C postemergence; type: in vivo, Galium aparine; conditions: 10 days, 0 to 100 scale (0 no effect, 100 complete control)
Method in brief: as §2

ragweed [23] = test: Test C postemergence; type: in vivo, Ambrosia artemisiifolia; conditions: 10 days, 0 to 100 scale (0 no effect, 100 complete control)
Method in brief: as §2

[24] = 500 g ai/ha, preemergence, 0 to 100 scale (0 no effect, 100 complete control)
[25] = Preemergence, 125 g ai/ha, 0 to 100 scale, 0 no effect, 100 complete control

Question: How did the “Plant response rating, Barnyardgrass (Flood)” value (barnyardgrass [1]) turn out when COC(C)(C)c1ncn(-c2ccc(C)c(C(=O)N3C[C@H](C)Oc4c(Cl)cccc43)c2)n1 [Compound 343] was run?
Answer: Its value is 35.

Question: And the “Plant response rating, Oat, Wild” value (oat, wild [2]; 500 g ai/ha, postemergence)?
Answer: Its value is 90.

Question: And the “Plant response rating, Oat, Wild” value (oat, wild [2]; Postemergence, 125 g ai/ha)?
Answer: Its value is 60.

Question: And the “Oat, Wild plant response rating” value (oat, wild [3]; [24])?
Answer: Its value is 90.

Question: What about the “Plant response rating, Oat, Wild” value (oat, wild [3]; [25]) of the same molecule?
Answer: Its value is 90.

Question: What about the “Wheat plant response rating” value (wheat [4]; [24]) of the same molecule?
Answer: Its value is 90.

Question: What about the “Plant response rating, Wheat” value (wheat [4]; [25]) of the same molecule?
Answer: Its value is 30.

Question: What about the “Barnyardgrass plant response rating” value (barnyardgrass [5]; [24]) of the same molecule?
Answer: Its value is 100.

Question: And the “Plant response rating, Barnyardgrass” value (barnyardgrass [5]; [25])?
Answer: The value was 100.

Question: And the “Kochia plant response rating” value (kochia [6]; [24])?
Answer: The value was 100.

Question: What about the “Plant response rating, Kochia” value (kochia [6]; [25]) of the same molecule?
Answer: The value was 90.

Question: And the “Plant response rating, Kochia” value (kochia [7]; 500 g ai/ha, postemergence)?
Answer: Its value is 90.

Question: And the “Plant response rating, Kochia” value (kochia [7]; Postemergence, 125 g ai/ha)?
Answer: Its value is 80.

Question: What about the “Foxtail, Green plant response rating” value (green foxtail [8]; [24]) of the same molecule?
Answer: Its value is 100.

Question: And the “Plant response rating, Foxtail, Green” value (green foxtail [8]; [25])?
Answer: Its value is 100.

Question: And the “Plant response rating, Wheat” value (wheat [9]; 500 g ai/ha, postemergence)?
Answer: The value was 60.

Question: What about the “Plant response rating, Wheat” value (wheat [9]; Postemergence, 125 g ai/ha) of the same molecule?
Answer: Its value is 20.

Question: And the “Plant response rating, Corn” value (corn [10]; 500 g ai/ha, postemergence)?
Answer: The value was 100.

Question: What about the “Plant response rating, Corn” value (corn [10]; Postemergence, 125 g ai/ha) of the same molecule?
Answer: Its value is 90.

Question: What about the “Plant response rating, Ryegrass, Italian” value (ryegrass, Italian [11]; 500 g ai/ha, postemergence) of the same molecule?
Answer: The value was 90.

Question: What about the “Plant response rating, Ryegrass, Italian” value (ryegrass, Italian [11]; Postemergence, 125 g ai/ha) of the same molecule?
Answer: The value was 70.

Question: What about the “Plant response rating, Ducksalad (Flood)” value (ducksalad) of the same molecule?
Answer: The value was 45.

Question: What about the “Plant response rating, Sedge, Umbrella (Flood)” value (sedge, umbrella) of the same molecule?
Answer: Its value is 65.

Question: What about the “Ryegrass, Italian plant response rating” value (ryegrass, Italian [12]; [24]) of the same molecule?
Answer: Its value is 100.

Question: What about the “Plant response rating, Ryegrass, Italian” value (ryegrass, Italian [12]; [25]) of the same molecule?
Answer: Its value is 100.

Question: What about the “Plant response rating, Barnyardgrass” value (barnyardgrass [13]; 500 g ai/ha, postemergence) of the same molecule?
Answer: The value was 70.

Question: And the “Plant response rating, Barnyardgrass” value (barnyardgrass [13]; Postemergence, 125 g ai/ha)?
Answer: The value was 20.

Question: And the “Soybean plant response rating” value (soybean [14]; [24])?
Answer: The value was 100.

Question: And the “Plant response rating, Soybean” value (soybean [14]; [25])?
Answer: The value was 30.

Question: And the “Plant response rating, Blackgrass” value (blackgrass [15]; 500 g ai/ha, postemergence)?
Answer: The value was 90.

Question: What about the “Plant response rating, Blackgrass” value (blackgrass [15]; Postemergence, 125 g ai/ha) of the same molecule?
Answer: Its value is 40.

Question: And the “Ragweed plant response rating” value (ragweed [16]; [24])?
Answer: The value was 70.

Question: What about the “Plant response rating, Ragweed” value (ragweed [16]; [25]) of the same molecule?
Answer: Its value is 30.

Question: What about the “Plant response rating, Pigweed, Palmer” value (pigweed, palmer [17]; 500 g ai/ha, postemergence) of the same molecule?
Answer: Its value is 100.

Question: And the “Plant response rating, Pigweed, Palmer” value (pigweed, palmer [17]; Postemergence, 125 g ai/ha)?
Answer: Its value is 50.

Question: What about the “Plant response rating, Foxtail, Green” value (green foxtail [18]; 500 g ai/ha, postemergence) of the same molecule?
Answer: Its value is 90.

Question: What about the “Plant response rating, Foxtail, Green” value (green foxtail [18]; Postemergence, 125 g ai/ha) of the same molecule?
Answer: The value was 50.

Question: What about the “Blackgrass plant response rating” value (blackgrass [19]; [24]) of the same molecule?
Answer: The value was 90.

Question: What about the “Plant response rating, Blackgrass” value (blackgrass [19]; [25]) of the same molecule?
Answer: The value was 50.

Question: And the “Plant response rating, Horseweed” value (horseweed; 500 g ai/ha, postemergence)?
Answer: Its value is 80.

Question: What about the “Plant response rating, Horseweed” value (horseweed; Postemergence, 125 g ai/ha) of the same molecule?
Answer: The value was 30.

Question: And the “Pigweed, Palmer plant response rating” value (pigweed, palmer [20]; [24])?
Answer: Its value is 100.

Question: And the “Plant response rating, Pigweed, Palmer” value (pigweed, palmer [20]; [25])?
Answer: Its value is 100.

Question: What about the “Plant response rating, Rice (Flood)” value (rice) of the same molecule?
Answer: The value was 15.

Question: What about the “Plant response rating, Soybean” value (soybean [21]; 500 g ai/ha, postemergence) of the same molecule?
Answer: Its value is 100.

Question: What about the “Plant response rating, Soybean” value (soybean [21]; Postemergence, 125 g ai/ha) of the same molecule?
Answer: Its value is 100.

Question: What about the “Corn plant response rating” value (corn [22]; [24]) of the same molecule?
Answer: The value was 60.

Question: And the “Plant response rating, Corn” value (corn [22]; [25])?
Answer: The value was 40.

Question: And the “Plant response rating, Galium” value (galium; 500 g ai/ha, postemergence)?
Answer: The value was 100.

Question: And the “Plant response rating, Galium” value (galium; Postemergence, 125 g ai/ha)?
Answer: The value was 100.

Question: And the “Plant response rating, Ragweed” value (ragweed [23]; 500 g ai/ha, postemergence)?
Answer: The value was 80.

Question: And the “Plant response rating, Ragweed” value (ragweed [23]; Postemergence, 125 g ai/ha)?
Answer: The value was 60.
